According to patent publication US11383003B2, “Water soluble farnesol analogs and their use” (Kimberly-Clark Worldwide, Inc., priority 2012, dated 2022):

Experiments:
[1] = test system: C. elegans glp4; sek1 infected with C. albicans SC5314; assay: Death rate of C. elegans glp4; sek1 infected with C. albicans SC5314, 96 well plates; format: in vivo, Caenorhabditis elegans; details: for % change in the death rate compared to the control: 25° C.
Procedure: Caenorhabditis elegans glp4; sek1 was used as the model for […]. Breger et al. (Breger, J.; Fuchs, B. B.; Aperis, G.; Moy, T. I., Ausubel, F. M., Mylonakis, E.; “Antifungal chemical compounds identified using a C. elegans pathogenicity assay.” PLoS Pathogens 3: 168-178; 2007) reported that the glp-4 mutation rendered the strain incapable of producing progeny at 25° C., and the sek-1 mutation enhanced the sensitivity of the strain to various pathogens, thereby decreasing the time for screening assays. It was observed that no progenies was produced by the Caenorhabditis elegans glp4; sek1 strain after 3 d incubation at 25° C.
The synchronization of C. elegans was achieved by collecting the eggs and arresting the larvae at L1 stage. The commonly used bleach treatment was able to release the eggs from the adult worms. However, it was observed that the released eggs were not always able to hatch after treated with sodium hypochlorite (0.2, 0.3, 0.4, 0.5, 0.7 or 1%) for 3-5 min. A modified egg laying method was developed to synchronize worms to L1 stage. In brief, stock cultures of C. elegans glp4; sek1, maintained on Nematode Growth Media plates (NGM plates), were subcultured onto NGM plates with OP 50 and incubated at 15° C. for 6-9 days. Then a chunk (1 cm^2) of agar with gravid adults was subcultured again onto NGM plates with OP50 and incubated at 15° C. After incubation of 3-7 days, the worms were gently washed off with 3 ml of M 9 buffer on the rotating platform (100 rpm). The plate was tilted on its lid to allow the liquid and worms drain to one side of the plate. The liquid and worms were aspirated off. The plate was washed again with M9 buffer three more times to remove OP50 as much as possible. After washing, the plate was incubated at 25° C. overnight to let the eggs hatch overnight. Since there was no OP50, the larvae were arrested at the L1 stage. The live C. elegans glp4; sek1 was quite curvy; whereas the dead C. elegans glp4; sek1 tended to be straight, and in most cases the dead worms with the hyphae of C. albicans pieced through the body. The curvy shape and movement after shaking were used as the criteria for live.
The In vitro screening assay, based on the method of Tampakakis et al (Tampakakis, E.; Okoli, I.; Mylonakis, E.; “A C. elegans-based, whole animal, in vivo screen for the identification of antifungal compounds.” Nature Protocols 3:1925-1931; 2008), is described as follows:
L1 worms, which were prepared by the modified egg-laying method, were collected by centrifugation at 675 g for 30 s at room temperature, and the supernatant was removed. Worms were resuspended in M 9 buffer and inoculated on NGM agar plates with OP50, ˜1000 worms per plate. After 2-3 days incubation at 25° C., the worms were washed off with M 9 buffer for the […] assay.
The control were worms fed on OP50.

[2] = test system: C. elegans glp4; sek1; assay: Toxicity: death rate of C. elegans glp4; sek1 fed on E. coli OP50; details: 2 mM; worms fed on E. coli OP50; 25° C.
Procedure: The toxicity of the selected compounds/products were tested using the C. elegans glp4; sek1 fed on E. coli OP50 (Table 5).
Stock cultures of C. albicans SC 5314 was subcultured into 3 ml of YPD broth and incubated at 30° C. Then the overnight culture in broth was spread onto YPD agar, and incubated at 30° C. The 24 h old lawn of SC5314 was used to feed worms for 2 h at 25° C. The control were worms fed on OP50.
The worms were washed off the YPD plates and washed twice with M9 buffer. The worms were resuspended in screening media, M9 buffer with 0.3% Tween 80. The worm suspension (50 μl) was dispensed into the wells of 96-well plates, 20-30 worms/well. Aliquots (50 μl) of compounds in screening media were added to wells, 5 wells each compound. The 96 well plates were incubated at 25° C. for up to 5 days. Live and dead worms were counted during incubation, and the death rates of worms were calculated.

[3] = test system: C. albicans SC5314; assay: Germ tube formation (GTF %) in vitro screening, GlcNAc-triggered differentiation assay; format: cell-based, Candida albicans
Procedure: Based on the results in FIG. 3, single cell suspensions of SC5314 was prepared as follows. Stock culture of C. albicans SC5314 was streaked onto YPD agar (YPDA) and incubated at 30° C. overnight. Single colonies were subcultured in YPD broth (YPDB) and incubated 30° C., 200 rpm overnight. Overnight culture in YPDB was subcultured in YPD broth again and incubated 30° C., 200 rpm 48 h. Cells were collected by centrifugation (4000 g 10 min) at 4° C., washed three times with sterile water, and then resuspended in sterile water a final concentration of 10^9 colony-forming unit/ml (cfu/ml). The suspension were stored at 4° C. at least 1 d, then subcultured into YPDB to a final concentration of 10^6 cfu/ml. After 48 h incubation, cell suspension was examined under the microscope for single cell percentage. When the single cell percentage exceeded 80%, cells were collected and washed three times with water, then resuspended in water to a final concentration of 10^9 cfu/ml, and stored at 4° C. for no more than a month.
Two approaches were taken to determine the percentage of cells with germ tubes formed (GTF %). One way was to count the total cells at the start of incubation, and count the ungerminated cells after incubation, then calculate the GTF % as (1—ungerminated cells/total cells at 0 h)*100. Another way was to store the samples at 15° C. for 20 h after incubation, then count the germinated cells and total cells after disaggregation, then calculated the GTF % as (germinated cells/total cells after storage)*100. […] Therefore, for practical purposes, the GTF % was determined by the first method, that is, GTF %=(1—ungerminated cells/total cells at 0 h)*100, for the in vitro screening discussed herein.
A screening medium, containing 11 mM imidazole buffer, 3 mM MgSO4, and 2.6 mM N-acetyl-D-glucosamine (GlcNAc) has been used to study the effect of farnesol analogs on the germ tube formation of C. albicans. Here, the germ tube formation of C. albicans in modified screening media was assessed with various concentrations of imidazole buffer (10 mM, 30 mM and 50 mM) and MgSO4 (0.5 mM, 1.5 mM and 3 mM). […] It took 2 h to 3 h for the GTF % to reach above 80%. For practical purposes, the screening medium, containing 11 mM imidazole buffer, 0.5 mM MgSO4, and 2.6 mM N-acetyl-D-glucosamine (GlcNAc) was adopted for in vitro screening the quorum sensing inhibitory effect of farnesol compounds.
The in vitro screening assay was based on the N-acetylglucosamine (GlcNAc)-triggered differentiation assay (Hornby et al., “Quorum sensing in the dimorphic fungus Candida albicans is mediated by farnesol;” Applied and Environmental Microbiology 67:2982-2992; 2001), which included 0.56 ml of 0.1 M imidazole buffer (pH 6.5), 0.15 ml of 0.1 M MgSO4, 0.13 ml of 0.1 M GlcNAc, and 4.16 ml of sterilized water. Bioassays of quorum sensing candidates were conducted by the addition of the chemical, as a solution in 100% methanol, to the bioassay media; the final concentration of methanol was no greater than 1%.

[4] = 0.4 mM to 3 mM (the tested four concentrations)
[5] = 2.0 mM, 4 days, two replicates (* three)
[6] = 2.0 mM, 5 days, two replicates (* three)

CC(C)=CCC/C(C)=C/CC/C(C)=C/COC(=O)CCC(=O)OCCO [#4 synthesized analog]
effect on death rate of infected C. elegans (in words) [1, 4]: did not have significant effect on the death of the worms
% change in the death rate compared to the control ([1]; 0.4 mM, 4 days, two replicates): 8 ± 8%
% change in the death rate compared to the control ([1]; 0.4 mM, 5 days, two replicates): 7 ± 1%
% change in the death rate compared to the control ([1]; 1.0 mM, 4 days, two replicates): −3 ± 3%
% change in the death rate compared to the control ([1]; 1.0 mM, 5 days, two replicates): −1 ± 4%
% change in the death rate compared to the control [1, 5]: 4 ± 8%
% change in the death rate compared to the control [1, 6]: 8 ± 11%
% change in the death rate compared to the control ([1]; 3.0 mM, 4 days, two replicates): 7 ± 4%
% change in the death rate compared to the control ([1]; 3.0 mM, 5 days, two replicates): 10 ± 5%
Death rate (%) [2]: 2%
GTF % (mean ± SEM, n = 2) ([3]; 100 μM, * one replicate): 59.2 ± 4.8%
GTF % (mean ± SEM, n = 2) ([3]; 200 μM): 31.1 ± 8.2%

O=C(O)Cc1ccc(O)cc1 [4-hydroxy phenyl acetic acid]
GTF % (mean ± SEM, n = 2) ([3]; 100 μM, * one replicate): 93.1* %
GTF % (mean ± SEM, n = 2) ([3]; 200 μM): 86.2 ± 1.8%

CC(C)=CCC/C(C)=C/CC/C(C)=C/COC(=O)CCC(=O)O [#1 synthesized analog]
effect on death rate of infected C. elegans (in words) ([1]; 0.4 mM to 2 mM): significantly reduced the death rate
% change in the death rate compared to the control ([1]; 0.4 mM, 4 days, two replicates): −43 ± 8%
% change in the death rate compared to the control ([1]; 0.4 mM, 5 days, two replicates): −30 ± 2%
% change in the death rate compared to the control ([1]; 1.0 mM, 4 days, two replicates): −33 ± 5%
% change in the death rate compared to the control ([1]; 1.0 mM, 5 days, two replicates): −29 ± 11%
% change in the death rate compared to the control [1, 5]: −23 ± 4%
% change in the death rate compared to the control [1, 6]: −34 ± 11%
effect on death rate of infected C. elegans (in words) ([1]; 3 mM): increased the death rate
% change in the death rate compared to the control ([1]; 3.0 mM, 4 days, two replicates): 20 ± 3%
% change in the death rate compared to the control ([1]; 3.0 mM, 5 days, two replicates): 10 ± 9%
effect on death rate of infected C. elegans (in words) ([1]; key finding, no concentration stated): significantly reduced the death rate
Death rate (%) [2]: 3.3 ± 1.2%
GTF % (mean ± SEM, n = 2) ([3]; 100 μM, * one replicate): 55.9 ± 8.2%
GTF % (mean ± SEM, n = 2) ([3]; 200 μM): 31.2 ± 5.0%

OCCc1ccc(O)c(O)c1 [hydroxytyrosol]
GTF % (mean ± SEM, n = 2) ([3]; 100 μM, * one replicate): 78.0* %
GTF % (mean ± SEM, n = 2) ([3]; 200 μM): 84.9 ± 0.1%

CC(C)=CCC/C(C)=C/CC/C(C)=C/COC(=O)CCC(=O)OCCCO [#3 synthesized analog]
effect on death rate of infected C. elegans (in words) [1, 4]: did not have significant effect on the death of the worms
% change in the death rate compared to the control ([1]; 0.4 mM, 4 days, two replicates): −6 ± 7%
% change in the death rate compared to the control ([1]; 0.4 mM, 5 days, two replicates): 10 ± 3%
% change in the death rate compared to the control ([1]; 1.0 mM, 4 days, two replicates): 1 ± 6%
% change in the death rate compared to the control ([1]; 1.0 mM, 5 days, two replicates): 3 ± 8%
% change in the death rate compared to the control [1, 5]: −12 ± 9%
% change in the death rate compared to the control [1, 6]: 9 ± 10%
% change in the death rate compared to the control ([1]; 3.0 mM, 4 days, two replicates): −2 ± 2%
% change in the death rate compared to the control ([1]; 3.0 mM, 5 days, two replicates): 7 ± 1%
Death rate (%) [2]: 6%
GTF % (mean ± SEM, n = 2) ([3]; 100 μM, * one replicate): 66.9 ± 1.5%
GTF % (mean ± SEM, n = 2) ([3]; 200 μM): 32.9 ± 1.0%

OC=Cc1ccccc1 [β-phenylethenol]
GTF % (mean ± SEM, n = 2) ([3]; 100 μM, * one replicate): 91.7* %
GTF % (mean ± SEM, n = 2) ([3]; 200 μM): 84.5 ± 0.3%

CC(C)=CCC/C(C)=C/CC/C(C)=C/CO[C@@H]1C(O)C(O)OC(CO)C1O (some centres unmarked) [#8 synthesized analog]
GTF % (mean ± SEM, n = 2) ([3]; 100 μM, * one replicate): 76.6 ± 0.3%
GTF % (mean ± SEM, n = 2) ([3]; 200 μM): 66.3 ± 0.6%

CC(C)=CCC/C(C)=C/CC/C(C)=C/COCCO [#7 synthesized analog]
GTF % (mean ± SEM, n = 2) ([3]; 100 μM, * one replicate): 72.6 ± 1.7%
GTF % (mean ± SEM, n = 2) ([3]; 200 μM): 58.8 ± 2.1%

CC(C)=CCC/C(C)=C/CC/C(C)=C/COCCCO [#6 synthesized analog]
GTF % (mean ± SEM, n = 2) ([3]; 100 μM, * one replicate): 75.1 ± 0.5%
GTF % (mean ± SEM, n = 2) ([3]; 200 μM): 51.1 ± 3.2%

OC[C@H]1O[C@@H](OCCc2ccc(O)cc2)[C@H](O)[C@@H](O)[C@@H]1O [salidroside]
GTF % (mean ± SEM, n = 2) ([3]; 100 μM, * one replicate): 93.2* %
GTF % (mean ± SEM, n = 2) ([3]; 200 μM): 78.0 ± 5.9%

COc1cc(CCN)ccc1O [3-Methoxy-4-hydroxy-phenylethyl amine]
GTF % (mean ± SEM, n = 2) ([3]; 100 μM, * one replicate): 95.7* %
GTF % (mean ± SEM, n = 2) ([3]; 200 μM): 86.4 ± 3.3%

O=C(O)Cc1ccccc1O [2-hydroxy phenyl acetic acid]
GTF % (mean ± SEM, n = 2) ([3]; 100 μM, * one replicate): 90.3* %
GTF % (mean ± SEM, n = 2) ([3]; 200 μM): 71.3 ± 2.5%
